Legend:
Type in all cases: in vivo
Digitaria adscendens [1] = test: Test Example 2 upland soil treatment; conditions: Table 5, upland soil treatment, index 0-5
Method: (§1) A plastic pot of 130 cm^2 was filled with upland soil. Subsequently, weed seeds of Setaria viridis, Digitaria adscendens, Chenopodium album and Stellaria media, and crop seeds of soybean (Glycine max) and wheat (Triticum aestivum), were sowed and covered with soil of about 1 cm thickness. On the next day after the sowing, the wettable powder prepared in Formulation Example 1 was diluted with water such that the amount of the active ingredient became 1 kg per hectare, and then uniformly applied to the soil surface. On the 21st day after the application, observation and evaluation were carried out according to the aforesaid criteria.
(§2) Herbicidal activity was evaluated based on the following criteria.
(§3) • 5: herbicidal effect of not less than 90%, or phytotoxicity of 90% or more • 4: herbicidal effect of not less than 70% and less than 90%, or phytotoxicity of 70% or more and less than 90% • 3: herbicidal effect of not less than 50% and less than 70%, or phytotoxicity of 50% or more and less than 70% • 2: herbicidal effect of not less than 30% and less than 50%, or phytotoxicity of 30% or more and less than 50% • 1: herbicidal effect of not less than 10% and less than 30%, or phytotoxicity of 10% or more and less than 30% • 0: herbicidal effect of not less than 0% and less than 10%, or phytotoxicity of 0% or more and less than 10%

Chenopodium album [2] = test: Test Example 2 upland soil treatment; conditions: Table 5, upland soil treatment, index 0-5
Method: as §1, §2, §3

Stellaria media [3] = test: Test Example 2 upland soil treatment; conditions: Table 5, upland soil treatment, index 0-5
Method: as §1, §2, §3

Setaria viridis [4] = test: Test Example 2 upland soil treatment; conditions: Table 5, upland soil treatment, index 0-5
Method: as §1, §2, §3

soybean (Glycine max) [5] = test: Test Example 1 upland field foliage treatment, crop phytotoxicity; conditions: Table 4, upland field foliage treatment, index 0-5
Method: as §1, with “14th” for “next”, “plant leaf surfaces.” for “soil surface.”, “criteria described below.” for “aforesaid criteria.”
as §2, §3

[6] = tested on: wheat (Triticum aestivum); test: as above; conditions: Table 4, upland field foliage treatment, index 0-5
Method: as §1, with “14th” for “next”, “plant leaf surfaces.” for “soil surface.”, “criteria described below.” for “aforesaid criteria.”
as §2, §3

Digitaria adscendens [7] = test: Test Example 1 upland field foliage treatment; conditions: Table 4, upland field foliage treatment, index 0-5
Method: as §1, with “14th” for “next”, “plant leaf surfaces.” for “soil surface.”, “criteria described below.” for “aforesaid criteria.”
as §2, §3

Chenopodium album [8] = test: Test Example 1 upland field foliage treatment; conditions: Table 4, upland field foliage treatment, index 0-5
Method: as §1, with “14th” for “next”, “plant leaf surfaces.” for “soil surface.”, “criteria described below.” for “aforesaid criteria.”
as §2, §3

Stellaria media [9] = test: Test Example 1 upland field foliage treatment; conditions: Table 4, upland field foliage treatment, index 0-5
Method: as §1, with “14th” for “next”, “plant leaf surfaces.” for “soil surface.”, “criteria described below.” for “aforesaid criteria.”
as §2, §3

Setaria viridis [10] = test: Test Example 1 upland field foliage treatment; conditions: Table 4, upland field foliage treatment, index 0-5
Method: as §1, with “14th” for “next”, “plant leaf surfaces.” for “soil surface.”, “criteria described below.” for “aforesaid criteria.”
as §2, §3

soybean (Glycine max) [11] = test: Test Example 2 upland soil treatment, crop phytotoxicity; conditions: Table 5, upland soil treatment, index 0-5
Method: as §1, §2, §3

[12] = tested on: wheat (Triticum aestivum); test: as above; conditions: Table 5, upland soil treatment, index 0-5
Method: as §1, §2, §3

SMILES	Herbicidal activity DA: Digitaria adscendens (Digitaria adscendens [1])	Herbicidal activity CA: Chenopodium album (Chenopodium album [2])	Herbicidal activity SM: Stellaria media (Stellaria media [3])	Herbicidal activity SV: Setaria viridis (Setaria viridis [4])	Herbicidal activity (phytotoxicity) GM: Soybean (Glycine max) (soybean (Glycine max) [5])	Herbicidal activity (phytotoxicity) TA: Wheat (Triticum aestivum) [6]	Herbicidal activity DA: Digitaria adscendens (Digitaria adscendens [7])	Herbicidal activity CA: Chenopodium album (Chenopodium album [8])	Herbicidal activity SM: Stellaria media (Stellaria media [9])	Herbicidal activity SV: Setaria viridis (Setaria viridis [10])	Herbicidal activity (phytotoxicity) GM: Soybean (Glycine max) (soybean (Glycine max) [11])	Herbicidal activity (phytotoxicity) TA: Wheat (Triticum aestivum) [12]
CCOC(CNC(=O)C(Cn1cc(C)c(-c2ccccc2)n1)=NOC)OCC [Compound 28]	4 (herbicidal effect of not less than 70% and less than 90%, or phytotoxicity of 70% or more and less than 90%)	4 (herbicidal effect of not less than 70% and less than 90%, or phytotoxicity of 70% or more and less than 90%)	3 (herbicidal effect of not less than 50% and less than 70%, or phytotoxicity of 50% or more and less than 70%)	3 (herbicidal effect of not less than 50% and less than 70%, or phytotoxicity of 50% or more and less than 70%)	0 (herbicidal effect of not less than 0% and less than 10%, or phytotoxicity of 0% or more and less than 10%)	0 (herbicidal effect of not less than 0% and less than 10%, or phytotoxicity of 0% or more and less than 10%)	3 (herbicidal effect of not less than 50% and less than 70%, or phytotoxicity of 50% or more and less than 70%)	4 (herbicidal effect of not less than 70% and less than 90%, or phytotoxicity of 70% or more and less than 90%)	3 (herbicidal effect of not less than 50% and less than 70%, or phytotoxicity of 50% or more and less than 70%)	3 (herbicidal effect of not less than 50% and less than 70%, or phytotoxicity of 50% or more and less than 70%)	0 (herbicidal effect of not less than 0% and less than 10%, or phytotoxicity of 0% or more and less than 10%)	0 (herbicidal effect of not less than 0% and less than 10%, or phytotoxicity of 0% or more and less than 10%)
CNC(=O)C(Cn1cc(C)c(-c2cccc(C)c2)n1)=NOC [Compound 36]	4 (herbicidal effect of not less than 70% and less than 90%, or phytotoxicity of 70% or more and less than 90%)	5 (herbicidal effect of not less than 90%, or phytotoxicity of 90% or more)	5 (herbicidal effect of not less than 90%, or phytotoxicity of 90% or more)	4 (herbicidal effect of not less than 70% and less than 90%, or phytotoxicity of 70% or more and less than 90%)	0 (herbicidal effect of not less than 0% and less than 10%, or phytotoxicity of 0% or more and less than 10%)	0 (herbicidal effect of not less than 0% and less than 10%, or phytotoxicity of 0% or more and less than 10%)	5 (herbicidal effect of not less than 90%, or phytotoxicity of 90% or more)	5 (herbicidal effect of not less than 90%, or phytotoxicity of 90% or more)	4 (herbicidal effect of not less than 70% and less than 90%, or phytotoxicity of 70% or more and less than 90%)	4 (herbicidal effect of not less than 70% and less than 90%, or phytotoxicity of 70% or more and less than 90%)	1 (herbicidal effect of not less than 10% and less than 30%, or phytotoxicity of 10% or more and less than 30%)	0 (herbicidal effect of not less than 0% and less than 10%, or phytotoxicity of 0% or more and less than 10%)
CNC(=O)C(Cn1cc(C)c(-c2cccc(Cl)c2)n1)=NOC [Compound 46]	5 (herbicidal effect of not less than 90%, or phytotoxicity of 90% or more)	5 (herbicidal effect of not less than 90%, or phytotoxicity of 90% or more)	5 (herbicidal effect of not less than 90%, or phytotoxicity of 90% or more)	5 (herbicidal effect of not less than 90%, or phytotoxicity of 90% or more)	0 (herbicidal effect of not less than 0% and less than 10%, or phytotoxicity of 0% or more and less than 10%)	0 (herbicidal effect of not less than 0% and less than 10%, or phytotoxicity of 0% or more and less than 10%)	5 (herbicidal effect of not less than 90%, or phytotoxicity of 90% or more)	5 (herbicidal effect of not less than 90%, or phytotoxicity of 90% or more)	5 (herbicidal effect of not less than 90%, or phytotoxicity of 90% or more)	5 (herbicidal effect of not less than 90%, or phytotoxicity of 90% or more)	1 (herbicidal effect of not less than 10% and less than 30%, or phytotoxicity of 10% or more and less than 30%)	0 (herbicidal effect of not less than 0% and less than 10%, or phytotoxicity of 0% or more and less than 10%)
CNC(=O)C(Cn1cc(C)c(-c2ccc(OCc3ccccc3)cc2)n1)=NOC [Compound 54]	4 (herbicidal effect of not less than 70% and less than 90%, or phytotoxicity of 70% or more and less than 90%)	5 (herbicidal effect of not less than 90%, or phytotoxicity of 90% or more)	5 (herbicidal effect of not less than 90%, or phytotoxicity of 90% or more)	3 (herbicidal effect of not less than 50% and less than 70%, or phytotoxicity of 50% or more and less than 70%)	0 (herbicidal effect of not less than 0% and less than 10%, or phytotoxicity of 0% or more and less than 10%)	0 (herbicidal effect of not less than 0% and less than 10%, or phytotoxicity of 0% or more and less than 10%)	5 (herbicidal effect of not less than 90%, or phytotoxicity of 90% or more)	4 (herbicidal effect of not less than 70% and less than 90%, or phytotoxicity of 70% or more and less than 90%)	4 (herbicidal effect of not less than 70% and less than 90%, or phytotoxicity of 70% or more and less than 90%)	4 (herbicidal effect of not less than 70% and less than 90%, or phytotoxicity of 70% or more and less than 90%)	0 (herbicidal effect of not less than 0% and less than 10%, or phytotoxicity of 0% or more and less than 10%)	0 (herbicidal effect of not less than 0% and less than 10%, or phytotoxicity of 0% or more and less than 10%)

From US7192906B2, “Substituted pyrazole derivatives, production process thereof, and herbicide compositions containing the derivatives” (SDS Biotech K.K., priority 2001, dated 2007)
